# Assay results: patent publication US10548982B2, “Reversible covalent linkage of functional molecules” (priority 2009, dated 2020)
# Test system: GIRK currents
# Assay: patch-clamp controls: inhibition of the activated GIRK currents
# Format: cell-based, human
# Procedure: HEK 293 cells expressing HKIR3.1/3.2 channel and human somatostatin receptor 2 were treated with these compounds, and whole cell patch-clamp current recordings taken. […] Cell Culture
# Whole cell patch-clamp current recordings were performed with an Axopatch 200B amplifier (Axon Instruments) using fire-polished pipettes with a resistance of 3-4 MS pulled from filamented borosilicated glass capillaries (Harvard Apparatus, 1.5 mm OD×1.17 mm ID). Data was acquired and analysed via a Digidata 1322A interface (Axon Instruments) and pCLAMP software (version 8.1, Axon Instruments). A fast perfusion system was used to apply somatostatin and analogues (Rapid Solution Changer, RSC-160, Bio-Logic France). Cells were clamped at −60 mV. The extracellular solution was (mM): NaCl 80, KCl 60, CaCl2 2, MgCl2 1, HEPES 10, NaH2PO4 0.33, glucose 10, pH 7.4; while the intracellular solution was (mM): K gluconate 110, KCl 20, NaCl 10, MgCl2 1, MgATP 2, EGTA 2 GTP 0.3, pH 7.4. After agonist application, current activated with a delay “lag” followed by a rapid rise to peak amplitude “time to peak”. After removal of the agonist, the current decays back to baseline. For each cell it was assessed if flow artifacts resulting from the pressure of drug application were present. This was done by applying bath solution from one of the sewer pipes at the beginning of the recordings. […]
Substance,"GIRK currents after treatment of cells with Pertussis toxin (control) (pertussis toxin 100 ng/ml, cells incubated overnight)",GIRK currents after GIRK inhibitor Tertiapin Q (control) (Tertiapin 100 nM)
Pertussis toxin,currents were largely inhibited,–
Tertiapin Q,–,currents were largely inhibited
